According to paper PMC8639922, “KSHV transactivator-derived small peptide traps coactivators to attenuate MYC and inhibits leukemia and lymphoma cell growth” (Communications Biology, 2021):
Square brackets hold non-standard residues; d marks the D form. Peptide text beside a SMILES is read from it. Orn = NCCC[C@H](N)C(=O)O; βAla = NCCC(=O)O

Columns and labels:
BC-1 = assay: Flow cytometry, apoptosis induction (Annexin V staining); format: cell-based, human; settings: BC-1, 24 h, AnnexinV+ 7AAD-
Description: (§1) Leukoreduction system chambers (LRS) from healthy donors were purchased from Vitalant. Peripheral blood mononuclear cells (PBMCs) were prepared by a standard Ficoll gradient method. PBMCs along with THP-1 and BCBL-1 cell lines (2 × 10^6 cells/ml, 0.2 ml 10% FBS/RPMI/DMEM per well of a 96-well plate) were treated with various doses (0–256 μM) of either VGN50 peptide or control mutant peptide for 24 h. Cell death, apoptosis, and proliferation were analyzed by flow cytometry (BD Acuri) after intracellular staining with anti-humanKi67-Alexa488 (Biolegend, 1:100) along with the isotype control antibody, annexin-V-FITC with 7-AAD staining (Biolegend) according to the manufacture’s protocol, Live/dead Fixable Red Dead Cell staining kit (Invitrogen) according to the manufacture’s protocol, or MTT assay. Peptides were commercially synthesized (GenScript) with >90% purity with TFA removal.
(§2) AnnexinV+ 7AAD- % = apoptosis % […]
(§3) S-Figure 3. Flow cytometry analyses
(§4) (a) Apoptosis (%) was determined as Annexi nV+ 7AAD- popul at i on gat ed i n r ed shown i n
(§5) representative FACS plots of BCBL-1 cel l s t r eat ed wi t h PBS or VGN50 at 32µM. […]

BCBL-1 = assay: as above; format: cell-based, human; settings: BCBL-1, 24 h, AnnexinV+ 7AAD-
Description: as §1, §2, §3, §4, §5

[1] = test system: PEL-derived human cytokines; assay: Olink INFLAMMATION panel, cytokines in ascites fluid of PEL xenograft; format: in vivo, mouse; set-up: key to IL8 / CXCL10 / FGF-19 / IL-12B / TRAIL / VEGFA / IL-17A / CST5 / IL-18R1 / HGF / ARTN / bNGF: NPX, log2-normalized protein expression; key to 4E-BP1 / TWEAK / LAP TGF-beta-1 / Beta-NGF / LAPTGFb-1 / TWAEK / 4EBP-1 / IL-8: log2-scale normalized protein expression (NPX) values
Description: Fig. 6 VGN50 inhibits BCBL-1 cell growth in xenograft mice. a PEL-xenograft. BCBL-1 cells (2 × 10^7 cells) were injected i.p. Peptide (10 mg/kg) was administrated i.p. daily and tumor growth was monitored by measurement of body weight (n = 6–9 mice per group). b Ascites volume and PEL cell counts. In a separate experiment, ascites volume and PEL cell counts in ascites fluid were measured at day 10. (n = 3–4 mice per group) c Induction of atrophy. BCBL-1 cells isolated from ascites fluid were measured for FSC-A and SSC-A by flow cytometry. […] (n = 3) d Expression of inflammatory cytokines. Principal component analysis based on expression levels of inflammatory cytokine contents in ascites fluid. e Cytokine heat map. Heatmap generated based on abundance of the indicated cytokines in ascites fluids. Ascites fluid was taken at day 10. a–c Data were analyzed using ordinary one-way Anova followed by Tukey’s multiple comparisons test.
Since PELs are frequently involved in effusions in multiple body cavities in human patients and the amounts of inflammatory cytokines in the effusion are strong prognostic factors, we also extracted ascites fluid and profiled it to see if the PEL cell-derived human cytokine profile was also altered by continued VGN50 treatment.
PEL-derived cytokine profiles in ascites were measured with Olink analysis service with the Olink INFLAMMATION panel using proximity extension technology, a high-throughput multiplex proteomic immunoassay. In short, the panel includes 92 immune-related proteins, primarily cytokines and chemokines. The assay utilizes epitope-specific binding and hybridization of a set of paired oligonucleotide antibody probes, which is subsequently amplified using quantitative PCR, resulting in log base 2-normalized protein expression (NPX) values. The data was processed and analyzed with Olink Insight Stat Analysis software.

CC(C)C[C@H](NC(=O)CCNC(=O)[C@H](CCCNC(=N)N)NC(=O)[C@H](CCCNC(=N)N)NC(=O)[C@H](CCCNC(=N)N)NC(=O)[C@H](CCCN)NC(=O)[C@H](CCCNC(=N)N)NC(=O)[C@H](CCCNC(=N)N)NC(=O)[C@H](CCCCN)NC(=O)[C@H](CCCCN)NC(=O)[C@H](N)CCCNC(=N)N)C(=O)N[C@@H](CO)C(=O)N[C@@H](CO)C(=O)N[C@@H](C)C(=O)N[C@@H](C)C(=O)N[C@@H](C)C(=O)NCC(=O)N[C@@H](CC(C)C)C(=O)N[C@@H](Cc1ccc(O)cc1)C(=O)N[C@@H](CCC(N)=O)C(=O)N[C@@H](CC(C)C)C(=O)N[C@@H](CC(=O)O)C(=O)N[C@H](C(=O)O)[C@@H](C)O [Mt-P] (H-[dR]KKRR[Orn]RRR[βAla]LSSAAAGLYQLDT-OH; N-terminus and C-terminus assumed)
AnnexinV+% (BC-1; replicate 1): 4.73% | AnnexinV+% (BC-1; replicate 2): 4.24% | AnnexinV+% (BC-1; replicate 3): 4.01% | AnnexinV+% (BCBL-1; replicate 1): 3.66% | AnnexinV+% (BCBL-1; replicate 2): 5.9% | AnnexinV+% (BCBL-1; replicate 3): 4.52% | 4E-BP1 ([1]; sheet Fig.6d-e, animal 1): 11.1631 | ARTN ([1]; sheet Fig.6d-e, animal 1): 5.386 | Beta-NGF ([1]; sheet Fig.6d-e, animal 1): -0.391 | CST5 ([1]; sheet Fig.6d-e, animal 1): 1.859 | CXCL10 ([1]; sheet Fig.6d-e, animal 1): 13.3461 | FGF-19 ([1]; sheet Fig.6d-e, animal 1): 2.165 | HGF ([1]; sheet Fig.6d-e, animal 1): 6.396 | IL8 ([1]; sheet Fig.6d-e, animal 1): 0.86 | IL-12B ([1]; sheet Fig.6d-e, animal 1): 2.007 | IL-17A ([1]; sheet Fig.6d-e, animal 1): 3.739 | IL-18R1 ([1]; sheet Fig.6d-e, animal 1): 4.131 | LAP TGF-beta-1 ([1]; sheet Fig.6d-e, animal 1): 6.199 | TRAIL ([1]; sheet Fig.6d-e, animal 1): 1.379 | TWEAK ([1]; sheet Fig.6d-e, animal 1): 8.018 | VEGFA ([1]; sheet Fig.6d-e, animal 1): 14.7314 | 4E-BP1 ([1]; sheet Fig.6d-e, animal 2): 11.0835 | ARTN ([1]; sheet Fig.6d-e, animal 2): 5.243 | Beta-NGF ([1]; sheet Fig.6d-e, animal 2): -0.4548 | CST5 ([1]; sheet Fig.6d-e, animal 2): 2.027 | CXCL10 ([1]; sheet Fig.6d-e, animal 2): 13.3201 | FGF-19 ([1]; sheet Fig.6d-e, animal 2): 2.0905 | HGF ([1]; sheet Fig.6d-e, animal 2): 6.305 | IL8 ([1]; sheet Fig.6d-e, animal 2): 0.7089 | IL-12B ([1]; sheet Fig.6d-e, animal 2): 2.204 | IL-17A ([1]; sheet Fig.6d-e, animal 2): 3.881 | IL-18R1 ([1]; sheet Fig.6d-e, animal 2): 4.133 | LAP TGF-beta-1 ([1]; sheet Fig.6d-e, animal 2): 6.253 | TRAIL ([1]; sheet Fig.6d-e, animal 2): 1.569 | TWEAK ([1]; sheet Fig.6d-e, animal 2): 8.091 | VEGFA ([1]; sheet Fig.6d-e, animal 2): 14.6793 | 4E-BP1 ([1]; sheet Fig.6d-e, animal 3): 10.8123 | ARTN ([1]; sheet Fig.6d-e, animal 3): 5.723 | Beta-NGF ([1]; sheet Fig.6d-e, animal 3): -0.3222 | CST5 ([1]; sheet Fig.6d-e, animal 3): 2.133 | CXCL10 ([1]; sheet Fig.6d-e, animal 3): 13.0806 | FGF-19 ([1]; sheet Fig.6d-e, animal 3): 2.37 | HGF ([1]; sheet Fig.6d-e, animal 3): 6.6 | IL8 ([1]; sheet Fig.6d-e, animal 3): 0.7009 | IL-12B ([1]; sheet Fig.6d-e, animal 3): 2.082 | IL-17A ([1]; sheet Fig.6d-e, animal 3): 4.127 | IL-18R1 ([1]; sheet Fig.6d-e, animal 3): 4.157 | LAP TGF-beta-1 ([1]; sheet Fig.6d-e, animal 3): 6.359 | TRAIL ([1]; sheet Fig.6d-e, animal 3): 1.603 | TWEAK ([1]; sheet Fig.6d-e, animal 3): 8.37 | VEGFA ([1]; sheet Fig.6d-e, animal 3): 14.8087 | 4EBP-1 ([1]; sheet SFig5, animal 1): 11.7332 | ARTN ([1]; sheet SFig5, animal 1): 5.386 | CST5 ([1]; sheet SFig5, animal 1): 1.859 | FGF-19 ([1]; sheet SFig5, animal 1): 2.165 | HGF ([1]; sheet SFig5, animal 1): 4.42 | IL-8 ([1]; sheet SFig5, animal 1): 0.86 | IL-12B ([1]; sheet SFig5, animal 1): 2.007 | IL-17A ([1]; sheet SFig5, animal 1): 1.782 | IL-18R1 ([1]; sheet SFig5, animal 1): 4.131 | LAPTGFb-1 ([1]; sheet SFig5, animal 1): 4.365 | TRAIL ([1]; sheet SFig5, animal 1): 1.379 | TWAEK ([1]; sheet SFig5, animal 1): 5.713 | VEGFA ([1]; sheet SFig5, animal 1): 13.2543 | bNGF ([1]; sheet SFig5, animal 1): -0.391 | 4EBP-1 ([1]; sheet SFig5, animal 2): 11.7927 | ARTN ([1]; sheet SFig5, animal 2): 5.243 | CST5 ([1]; sheet SFig5, animal 2): 2.027 | CXCL10 ([1]; sheet SFig5, animal 2): 11.2953 | FGF-19 ([1]; sheet SFig5, animal 2): 2.0905 | HGF ([1]; sheet SFig5, animal 2): 4.269 | IL-8 ([1]; sheet SFig5, animal 2): 0.7089 | IL-12B ([1]; sheet SFig5, animal 2): 2.204 | IL-17A ([1]; sheet SFig5, animal 2): 1.942 | IL-18R1 ([1]; sheet SFig5, animal 2): 4.133 | LAPTGFb-1 ([1]; sheet SFig5, animal 2): 4.29 | TRAIL ([1]; sheet SFig5, animal 2): 1.569 | TWAEK ([1]; sheet SFig5, animal 2): 5.701 | VEGFA ([1]; sheet SFig5, animal 2): 13.2545 | bNGF ([1]; sheet SFig5, animal 2): -0.4548 | 4EBP-1 ([1]; sheet SFig5, animal 3): 11.484 | ARTN ([1]; sheet SFig5, animal 3): 5.723 | CST5 ([1]; sheet SFig5, animal 3): 2.133 | CXCL10 ([1]; sheet SFig5, animal 3): 11.1526 | FGF-19 ([1]; sheet SFig5, animal 3): 2.37 | HGF ([1]; sheet SFig5, animal 3): 4.697 | IL-8 ([1]; sheet SFig5, animal 3): 0.7009 | IL-12B ([1]; sheet SFig5, animal 3): 2.082 | IL-17A ([1]; sheet SFig5, animal 3): 2.371 | IL-18R1 ([1]; sheet SFig5, animal 3): 4.157 | LAPTGFb-1 ([1]; sheet SFig5, animal 3): 4.688 | TRAIL ([1]; sheet SFig5, animal 3): 1.603 | TWAEK ([1]; sheet SFig5, animal 3): 6.152 | VEGFA ([1]; sheet SFig5, animal 3): 13.6674 | bNGF ([1]; sheet SFig5, animal 3): -0.3222
